This note sets out measurements from patent US12187723B2 (BRISTOL-MYERS SQUIBB COMPANY, priority 2019, dated 2025).

As a reminder, the IC50 is the midpoint of a concentration-inhibition curve. Read a low IC50 as greater potency in that assay.

The target in one assay is T1, human TLR7 (Homo sapiens, UniProt Q9NYK1).
T1 construct: host or cells: HEK-Blue cells
T1 sequence (Q9NYK1 27-1049): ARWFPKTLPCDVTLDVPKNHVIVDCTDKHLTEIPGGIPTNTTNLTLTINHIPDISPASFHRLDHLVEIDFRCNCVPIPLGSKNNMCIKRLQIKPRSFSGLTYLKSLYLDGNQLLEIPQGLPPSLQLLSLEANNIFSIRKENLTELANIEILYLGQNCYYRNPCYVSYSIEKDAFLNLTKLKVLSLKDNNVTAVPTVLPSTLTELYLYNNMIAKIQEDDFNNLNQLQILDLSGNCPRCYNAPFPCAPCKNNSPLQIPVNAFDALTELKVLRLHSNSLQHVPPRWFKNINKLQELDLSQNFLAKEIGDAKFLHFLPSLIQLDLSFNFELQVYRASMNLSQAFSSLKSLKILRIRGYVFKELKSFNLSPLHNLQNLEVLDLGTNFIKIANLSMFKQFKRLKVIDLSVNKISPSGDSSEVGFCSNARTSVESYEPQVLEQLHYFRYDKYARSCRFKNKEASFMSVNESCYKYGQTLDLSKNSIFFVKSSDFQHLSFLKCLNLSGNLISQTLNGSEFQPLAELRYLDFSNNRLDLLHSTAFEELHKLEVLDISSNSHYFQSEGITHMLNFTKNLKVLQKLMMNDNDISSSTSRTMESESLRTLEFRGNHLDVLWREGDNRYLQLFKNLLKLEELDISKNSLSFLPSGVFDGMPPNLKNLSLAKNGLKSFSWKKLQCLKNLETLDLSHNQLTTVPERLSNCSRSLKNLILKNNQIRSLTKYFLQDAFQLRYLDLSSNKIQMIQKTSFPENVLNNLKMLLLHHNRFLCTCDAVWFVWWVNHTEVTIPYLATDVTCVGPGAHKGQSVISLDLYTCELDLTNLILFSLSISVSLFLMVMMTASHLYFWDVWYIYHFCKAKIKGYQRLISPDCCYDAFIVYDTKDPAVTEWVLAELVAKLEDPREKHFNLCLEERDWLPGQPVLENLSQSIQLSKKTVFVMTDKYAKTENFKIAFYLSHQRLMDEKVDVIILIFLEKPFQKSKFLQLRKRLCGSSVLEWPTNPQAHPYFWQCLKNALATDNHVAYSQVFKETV
The assay is described as follows: TLR7 inhibition reporter assay (HEK-Blue SEAP). It is filed as cell-based. As to conditions: HEK-Blue cells overexpressing human TLR7, gardiquimod 7.5 μM, 22 hour incubation. The protocol: (§1) TLR7/8/9 Inhibition Reporter Assays
Briefly, cells are seeded into Greiner 384 well plates (15000 cells per well for TLR7, 20,000 for TLR8 and 25,000 for TLR9) and then treated with test compounds in DMSO to yield a final dose response concentration range of 0.05 nM-50 μM. […] After a 22 hour incubation at 37° C., 5% CO2, SEAP levels are determined with the addition of HEK-Blue™ Detection reagent (Invivogen), a cell culture medium that allows for detection of SEAP, according to manufacturer's specifications. The percent inhibition is determined as the % reduction in the HEK-Blue signal present in wells treated with agonist plus DMSO alone compared to wells treated with a known inhibitor.
For orientation: In a reporter assay the amount or activity of a reporter protein is the signal.

The target in another assay is T2, human TLR8 (Homo sapiens, UniProt Q9NR97).
T2 construct: host or cells: HEK-Blue cells
T2 sequence (Q9NR97 27-1041): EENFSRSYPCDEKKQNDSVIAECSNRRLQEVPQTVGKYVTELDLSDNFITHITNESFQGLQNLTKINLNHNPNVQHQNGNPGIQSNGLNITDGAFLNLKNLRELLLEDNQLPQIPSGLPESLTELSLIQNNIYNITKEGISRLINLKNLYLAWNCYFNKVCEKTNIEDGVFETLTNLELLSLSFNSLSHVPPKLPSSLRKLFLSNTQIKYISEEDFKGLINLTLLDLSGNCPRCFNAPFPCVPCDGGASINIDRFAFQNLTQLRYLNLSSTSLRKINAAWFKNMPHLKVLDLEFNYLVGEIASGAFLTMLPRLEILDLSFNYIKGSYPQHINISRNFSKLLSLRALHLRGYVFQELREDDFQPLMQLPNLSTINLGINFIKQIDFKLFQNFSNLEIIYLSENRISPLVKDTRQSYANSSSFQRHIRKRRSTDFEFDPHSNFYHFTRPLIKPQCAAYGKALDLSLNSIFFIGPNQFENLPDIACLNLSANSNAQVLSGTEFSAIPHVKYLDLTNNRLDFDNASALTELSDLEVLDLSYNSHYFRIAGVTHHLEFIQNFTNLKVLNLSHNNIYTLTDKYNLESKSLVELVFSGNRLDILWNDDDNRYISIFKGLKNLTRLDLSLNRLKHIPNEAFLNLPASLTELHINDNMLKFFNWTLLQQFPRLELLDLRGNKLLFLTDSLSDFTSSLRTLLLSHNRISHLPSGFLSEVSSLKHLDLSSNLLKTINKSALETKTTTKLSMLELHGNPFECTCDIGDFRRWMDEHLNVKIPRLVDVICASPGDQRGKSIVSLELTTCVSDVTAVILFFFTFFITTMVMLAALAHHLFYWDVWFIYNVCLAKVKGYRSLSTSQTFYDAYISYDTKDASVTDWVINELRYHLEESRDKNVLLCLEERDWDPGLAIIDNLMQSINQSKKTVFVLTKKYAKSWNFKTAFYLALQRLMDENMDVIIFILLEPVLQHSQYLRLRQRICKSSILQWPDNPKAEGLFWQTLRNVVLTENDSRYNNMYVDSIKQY
The assay is described as follows: TLR8 inhibition reporter assay (HEK-Blue SEAP). It is filed as cell-based. As to conditions: HEK-Blue cells overexpressing human TLR8, R848 15.9 μM, 22 hour incubation. The protocol:
as §1
HEK-Blue™-cells (Invivogen) overexpressing human TLR7, TLR8 or TLR9 receptors were used for screening inhibitors of these receptors using an inducible SEAP (secreted embryonic alkaline phosphatase) reporter gene under the control of the IFN-β minimal promoter fused to five NF-κB and AP-1-binding sites. Briefly, cells are seeded into Greiner 384 well plates (15000 cells per well for TLR7, 20,000 for TLR8 and 25,000 for TLR9) and then treated with test compounds in DMSO to yield a final dose response concentration range of 0.05 nM-50 μM. After a 30 minute compound pre-treatment at room temperature, the cells are then stimulated with a TLR7 ligand (gardiquimod at a final concentration of 7.5 μM), TLR8 ligand (R848 at a final concentration of 15.9 μM) or TLR9 ligand (ODN2006 at a final concentration of 5 nM) to activate NF-κB and AP-1 which induce the production of SEAP. After a 22 hour incubation at 37° C., 5% CO2, SEAP levels are determined with the addition of HEK-Blue™ Detection reagent (Invivogen), a cell culture medium that allows for detection of SEAP, according to manufacturer's specifications. The percent inhibition is determined as the % reduction in the HEK-Blue signal present in wells treated with agonist plus DMSO alone compared to wells treated with a known inhibitor.

Regarding `COc1cc(-c2cc3[nH]c(=O)n([C@H]4CCCN(CC(C)C)C4)c3cc2C(C)C)cn2ncnc12` [Example 129, (S)-1-(1-isobutylpiperidin-3-yl)-6-isopropyl-5-(8-methoxy-[1,2,4]triazolo[1,5-a]pyridin-6-yl)-1,3-dihydro-2H-benzo[d]imidazol-2-one], the 50% inhibitory concentration (IC50) against human TLR7 was determined as 12.8 nM; against human TLR8, 4 nM.
On the same counts, the results for `COCCN1CCC[C@@H](n2c(=O)[nH]c3cc(-c4cc(OC)c5ncnn5c4)c(C(F)(F)F)cc32)C1` [Example 118, (R)-5-(8-methoxy-[1,2,4]triazolo[1,5-a]pyridin-6-yl)-1-(1-(2-methoxyethyl)piperidin-3-yl)-6-(trifluoromethyl)-1,3-dihydro-2H-benzo[d]imidazol-2-one] are 26.5 nM and 22.7 nM.
On the same counts, the results for `CCN1CCC(n2c(=O)[nH]c3cc(-c4cc(C)c5ncnn5c4)cc(C)c32)CC1` [Example 108, 1-(1-ethylpiperidin-4-yl)-7-methyl-5-(8-methyl-[1,2,4]triazolo[1,5-a]pyridin-6-yl)-1,3-dihydro-2H-benzo[d]imidazol-2-one] are 11.5 nM and 83.1 nM.
On the same counts, the results for `CCc1cc2c(cc1-c1cc(OC)c3ncnn3c1)[nH]c(=O)n2[C@H]1CC[C@@H](NC2CCOCC2)CC1` [Example 166, 6-ethyl-5-(8-methoxy-[1,2,4]triazolo[1,5-a]pyridin-6-yl)-1-((1s,4s)-4-((tetrahydro-2H-pyran-4-yl)amino)cyclohexyl)-1,3-dihydro-2H-benzo[d]imidazol-2-one] are 1.9 nM and 0.54 nM.
For the compound `COc1cc(-c2cc3[nH]c(=O)n([C@H]4CCCN(CC5CCOCC5)C4)c3cc2C(C)C)cn2ncnc12` [Example 125, (S)-6-isopropyl-5-(8-methoxy-[1,2,4]triazolo[1,5-a]pyridin-6-yl)-1-(1-((tetrahydro-2H-pyran-4-yl)methyl)piperidin-3-yl)-1,3-dihydro-2H-benzo[d]imidazol-2-one], the IC50 against human TLR7 stood at 34.1 nM; on human TLR8, 2.37 nM.
For `CCN1CCC(n2c(=O)[nH]c3cc(-c4cc(OC)c5ncnn5c4)c(C)cc32)CC1` [Example 9, 1-(1-ethylpiperidin-4-yl)-5-(8-methoxy-[1,2,4]triazolo[1,5-a]pyridin-6-yl)-6-methyl-1,3-dihydro-2H-benzo[d]imidazol-2-one], the IC50 against human TLR7 is 70.8 nM; at human TLR8, 92.7 nM.
As for `CCCN1CCC(n2c(=O)[nH]c3cc(-c4cc(C)c5ncnn5c4)c(C)cc32)CC1` [Example 7, 6-methyl-5-(8-methyl-[1,2,4]triazolo[1,5-a]pyridin-6-yl)-1-(1-propylpiperidin-4-yl)-1,3-dihydro-2H-benzo[d]imidazol-2-one], the IC50 worked out at 41.8 nM at human TLR7 and 48.6 nM against human TLR8.
On the same counts, the results for `Cc1cc2c(cc1-c1cc(C)c3ncnn3c1)[nH]c(=O)n2C1CCN(C)CC1` [Example 3, 6-methyl-5-(8-methyl-[1,2,4]triazolo[1,5-a]pyridin-6-yl)-1-(1-methylpiperidin-4-yl)-1,3-dihydro-2H-benzo[d]imidazol-2-one] are 30.5 nM and 36.8 nM.
On the same counts, the results for `COc1cc(-c2cc3[nH]c(=O)n(C4CCN(C)CC4)c3cc2C(C)C)cn2ncnc12` [Example 154, 6-isopropyl-5-(8-methoxy-[1,2,4]triazolo[1,5-a]pyridin-6-yl)-1-(1-methylpiperidin-4-yl)-1,3-dihydro-2H-benzo[d]imidazol-2-one] are 2.12 nM and 1.52 nM.
On the same counts, the results for `Cc1cc(-c2cc(C)c3ncnn3c2)cc2[nH]c(=O)n(C3CCN(C)CC3)c12` [Example 106, 7-methyl-5-(8-methyl-[1,2,4]triazolo[1,5-a]pyridin-6-yl)-1-(1-methylpiperidin-4-yl)-1,3-dihydro-2H-benzo[d]imidazol-2-one] are 29.7 nM and 150 nM.
Turning to `CCN1CCC[C@@H](n2c(=O)[nH]c3cc(-c4cc(OC)c5ncnn5c4)c(C(C)C)cc32)C1` (single isomer, unassigned) [Example 144], the concentration for half-maximal inhibition (IC50) was found to be 8.58 nM on human TLR7 and 5.02 nM against human TLR8.
The like results for `CCc1cc2c(cc1-c1cc(OC)c3ncnn3c1)[nH]c(=O)n2[C@H]1CC[C@@H](NC(C)C)CC1` [Example 167, 6-ethyl-1-((1s,4s)-4-(isopropylamino)cyclohexyl)-5-(8-methoxy-[1,2,4]triazolo[1,5-a]pyridin-6-yl)-1,3-dihydro-2H-benzo[d]imidazol-2-one] were, in that order, 3.08 nM and 0.82 nM.
The like results for `CCC(CC)CN1CCC(n2c(=O)[nH]c3cc(-c4cc(OC)c5ncnn5c4)c(C(C)C)cc32)CC1` [Example 165, 1-(1-(2-ethylbutyl)piperidin-4-yl)-6-isopropyl-5-(8-methoxy-[1,2,4]triazolo[1,5-a]pyridin-6-yl)-1,3-dihydro-2H-benzo[d]imidazol-2-one] were, in that order, 10.9 nM and 7.03 nM.
The like results for `COc1cc(-c2cc3[nH]c(=O)n([C@H]4CCCN(CC5CC5)C4)c3cc2C(C)C)cn2ncnc12` (single isomer, unassigned) [Example 128] were, in that order, 44 nM and 2.63 nM.
For `Cc1cc2c(cc1-c1cc(C)c3ncnn3c1)[nH]c(=O)n2[C@H]1CCCN(C(=O)CN(C)C)C1` [Example 103, (S)-1-(1-(dimethylglycyl)piperidin-3-yl)-6-methyl-5-(8-methyl-[1,2,4]triazolo[1,5-a]pyridin-6-yl)-1,3-dihydro-2H-benzo[d]imidazol-2-one], the IC50 came to 215 nM against human TLR7 and 205 nM on human TLR8.
